Measured values as given in BindingDB's records for doi:10.1111/j.1747-0285.2009.00902.x (Institut Des BiomolÉCules Max Mousseron (Ibmm), 2009).
pKi: −log10 of the molar value. Values joined by “and” are separate entries in the source; they are usually repeats but may differ in a detail not shown here. Identical values can stand only once.

Target: Carbonic anhydrase 6 (Homo sapiens, UniProt P23280)
Assay: Enzyme Inhbition Assay
Details: pH 7.5; 20 °C

Sequence of Carbonic anhydrase 6 (P23280 whole entry): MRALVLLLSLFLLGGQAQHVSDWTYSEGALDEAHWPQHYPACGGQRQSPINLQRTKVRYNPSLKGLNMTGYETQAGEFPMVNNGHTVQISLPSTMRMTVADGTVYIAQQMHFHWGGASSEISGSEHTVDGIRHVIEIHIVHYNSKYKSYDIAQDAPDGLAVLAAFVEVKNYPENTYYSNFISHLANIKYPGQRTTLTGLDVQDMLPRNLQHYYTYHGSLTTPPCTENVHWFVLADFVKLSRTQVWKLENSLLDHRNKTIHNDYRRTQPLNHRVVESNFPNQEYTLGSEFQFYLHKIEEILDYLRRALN

| pKi | Compound |
| --- | --- |
| 8.46 and 8.29 and 9.25 | NS(=O)(=O)c1ccc(NC2OCC(O)C(O)C2O)cc1 (configuration not stated) |
| 8.47 and 7.89 | CC1OC(Nc2ccc(S(N)(=O)=O)cc2)C(O)C(O)C1O (configuration not stated) |
